Biological target: T1, NapT8 (Streptomyces sp. CNQ-525, UniProt A7KH30)
T1 sequence (A7KH30 1-297): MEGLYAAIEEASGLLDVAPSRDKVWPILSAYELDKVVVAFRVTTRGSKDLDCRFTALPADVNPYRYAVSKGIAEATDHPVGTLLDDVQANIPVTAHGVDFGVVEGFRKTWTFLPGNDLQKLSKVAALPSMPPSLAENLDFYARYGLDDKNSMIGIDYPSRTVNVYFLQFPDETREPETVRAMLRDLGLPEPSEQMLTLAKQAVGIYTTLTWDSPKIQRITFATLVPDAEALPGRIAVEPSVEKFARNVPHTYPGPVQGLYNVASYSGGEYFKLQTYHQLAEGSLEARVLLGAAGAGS
Test: reversed-phase HPLC turnover assay
Assay type: biochemical
Conditions: 34 as prenyl acceptor; MgCl2

CC(C)=CCOP(=O)(O)OP(=O)(O)O [dimethylallyl pyrophosphate]
reversed-phase HPLC turnover assay: NapT8 was only active when the isoprenoid DMAPP was utilized
